pKi: −log10 of the molar value. Where “and” joins values, the source holds several entries; their conditions need not be identical. Equal values may be shown once. Read-outs that look alike come from different tables or passages of the source.
Key:
[1] = target: T1, rat adrenergic α1B receptor (Rattus norvegicus, UniProt P15823); test: Radioligand binding, adrenergic α1B ([3H]Prazosin); settings: for Percentage inhibition of ligand binding, Adrenergic α1B / Percentage inhibition of ligand binding, Adrenergic α1B (0.1 μM): 0.1 µM
T1 construct: rat adrenergic α1B receptor obtained from Wistar Rat liver; from tissue; host or cells: Wistar rat liver
T1 sequence (P15823 1-515): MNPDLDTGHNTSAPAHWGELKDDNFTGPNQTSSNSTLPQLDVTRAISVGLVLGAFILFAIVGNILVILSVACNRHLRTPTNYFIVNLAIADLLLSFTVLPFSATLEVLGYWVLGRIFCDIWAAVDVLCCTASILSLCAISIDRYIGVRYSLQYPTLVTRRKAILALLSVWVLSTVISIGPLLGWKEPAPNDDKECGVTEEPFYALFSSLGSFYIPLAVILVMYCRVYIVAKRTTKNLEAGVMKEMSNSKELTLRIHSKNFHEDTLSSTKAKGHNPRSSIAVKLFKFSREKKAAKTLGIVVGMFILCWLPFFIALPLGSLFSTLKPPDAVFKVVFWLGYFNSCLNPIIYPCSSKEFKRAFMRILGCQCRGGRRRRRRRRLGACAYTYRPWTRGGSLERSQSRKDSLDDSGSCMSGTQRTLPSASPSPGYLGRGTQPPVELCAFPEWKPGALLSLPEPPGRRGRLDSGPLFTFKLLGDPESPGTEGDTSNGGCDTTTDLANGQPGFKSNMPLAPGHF
Summary of the method: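 Rat α1B receptor from Wistar rat liver was incubated with 0.25 nM [3H]prazosin for 60 min at 25 °C in 50 mM Tris-HCl, pH 7.4, 0.5 mM EDTA. Non-specific binding was defined with 10 μM phentolamine. Bound radioligand was measured by filtration and counting, reported as percent inhibition of specific binding.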

[2] = target: T2, human recombinant adrenergic α2B receptor (Homo sapiens, UniProt P18089); test: Radioligand binding, adrenergic α2B ([3H]Rauwolscine); settings: for inhibition at 0.03 µM: read-out: Percentage inhibition of ligand binding, Adrenergic α2B (0.03 μM), compound at 0.03 μM; for inhibition at 0.03 µM / Percentage inhibition of ligand binding, Adrenergic α2B (0.03 μM): repeat datapoints each shown; for Percentage inhibition of ligand binding, Adrenergic α2B / Percentage inhibition of ligand binding, Adrenergic α2B (0.03 μM): 0.03 µM; for pKi: read-out: Ki α2B
T2 construct: expressed in transfected cells; host or cells: CHO-K1
T2 sequence (P18089 1-450): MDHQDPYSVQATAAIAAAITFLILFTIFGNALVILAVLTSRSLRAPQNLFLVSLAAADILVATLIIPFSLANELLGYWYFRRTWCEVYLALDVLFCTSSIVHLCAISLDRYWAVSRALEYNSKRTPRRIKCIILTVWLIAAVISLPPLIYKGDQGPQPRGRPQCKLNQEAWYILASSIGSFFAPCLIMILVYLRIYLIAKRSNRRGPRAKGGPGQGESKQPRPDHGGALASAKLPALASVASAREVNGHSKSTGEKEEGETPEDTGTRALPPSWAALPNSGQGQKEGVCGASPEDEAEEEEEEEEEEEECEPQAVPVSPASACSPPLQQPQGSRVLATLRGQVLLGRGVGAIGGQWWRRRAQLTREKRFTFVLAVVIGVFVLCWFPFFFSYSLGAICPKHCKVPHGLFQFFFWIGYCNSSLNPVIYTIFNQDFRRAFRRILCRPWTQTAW
Summary of the method: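 Receptor expressed in CHO-K1 cells, assayed in 50 mM Tris-HCl pH 7.4 with 12.5 mM MgCl2, 1 mM EDTA and 0.2% BSA. Compounds were incubated with 2.5 nM [3H]Rauwolscine for 60 min at 25° C; 10 μM Prazosin defined non-specific binding. Filter counting gave percent inhibition of specific binding.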

[3] = target: T3, human recombinant adrenergic α2A receptor (Homo sapiens, UniProt P08913); test: Radioligand binding, adrenergic α2A ([3H]MK-912); settings: for Percentage inhibition of ligand binding, Adrenergic α2A (0.1 μM) / Percentage inhibition of ligand binding, Adrenergic α2A: 0.1 µM
T3 construct: expressed in transfected cells; host or cells: insect Sf9 cells
T3 sequence (P08913 1-465): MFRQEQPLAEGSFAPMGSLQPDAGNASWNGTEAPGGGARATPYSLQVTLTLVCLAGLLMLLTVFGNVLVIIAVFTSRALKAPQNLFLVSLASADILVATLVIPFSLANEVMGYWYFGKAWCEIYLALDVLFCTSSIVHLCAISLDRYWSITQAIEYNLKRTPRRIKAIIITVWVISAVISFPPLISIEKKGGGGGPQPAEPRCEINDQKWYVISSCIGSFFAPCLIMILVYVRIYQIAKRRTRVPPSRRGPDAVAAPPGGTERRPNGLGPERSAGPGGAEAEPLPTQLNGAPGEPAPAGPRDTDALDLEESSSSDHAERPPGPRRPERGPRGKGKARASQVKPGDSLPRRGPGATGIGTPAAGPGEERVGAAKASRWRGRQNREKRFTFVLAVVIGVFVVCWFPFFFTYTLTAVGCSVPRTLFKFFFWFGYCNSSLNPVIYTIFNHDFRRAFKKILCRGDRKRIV
Summary of the method: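 Displacement of 1 nM [3H]MK-912 from receptor produced in insect Sf9 cells was measured after 60 min at 25 °C. Readout: percent inhibition of specific binding.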

[4] = read-out: Percentage inhibition of ligand binding, Adrenergic α1B (0.1 μM), compound at 0.1 μM, [3H]Prazosin, repeat datapoints each shown
[5] = compound at 0.1 μM, [3H]MK-912, repeat datapoints each shown
[6] = compound at 0.03 μM, [3H]Rauwolscine, repeat assays, each datapoint shown
[7] = read-out: Percentage inhibition of ligand binding, Adrenergic α2A (0.1 μM), compound at 0.1 μM, [3H]MK-912, repeat datapoints each shown
[8] = compound at 0.1 μM, [3H]Prazosin, repeat datapoints each shown
[9] = compound at 0.03 μM, [3H]Rauwolscine

Compound	inhibition at 0.1 µM [1, 4]	inhibition at 0.03 µM ([2]; [3H]Rauwolscine)	Percentage inhibition of ligand binding, Adrenergic α2A (0.1 μM) [3, 5]	Percentage inhibition of ligand binding, Adrenergic α1B (0.1 μM) [1, 8]	Percentage inhibition of ligand binding, Adrenergic α2B (0.03 μM) [2, 9]	further results
Cc1ccc2c(c1)c1c(n2CC(O)c2ccc(F)cc2)CCN2CCCC12 (single isomer, unassigned) [II-120a, 1-(4-fluoro-phenyl)-2-(9-methyl-1,2,3,4,5,10c-hexahydro-3a,6-diaza-cyclopenta[c]fluoren-6-yl)-ethanol]	99%	101%	65%			
Cc1ccc2c(c1)c1c(n2CC(C)(O)c2cccnc2)CCNC1 (single isomer, unassigned) [24a]						inhibition at 0.1 µM ([1]; compound at 0.1 μM, [3H]Prazosin, repeat assays, each datapoint shown, read-out: Percentage inhibition of ligand binding, Adrenergic α1B): 8%; Percentage inhibition of ligand binding, Adrenergic α2B [2, 6]: 63%; inhibition at 0.1 µM ([3]; compound at 0.1 μM, [3H]MK-912, repeat assays, each datapoint shown, read-out: Percentage inhibition of ligand binding, Adrenergic α2A): 8%
CN1CCc2c(c3cc(C(C)(C)O)ccc3n2CC(O)c2ccncc2)C1 (single isomer, unassigned) [23a, 2-(2,3,4,5-tetrahydro-5-(2-hydroxy-2-(pyridin-4-yl)ethyl)-2-methyl-1H-pyrido[4,3-b]indol-8-yl)propan-2-ol]						Percentage inhibition of ligand binding, Adrenergic α1B ([1]; compound at 0.1 μM, [3H]Prazosin, repeat assays, each datapoint shown): −20%; Percentage inhibition of ligand binding, Adrenergic α2B [2, 6]: 6%; Percentage inhibition of ligand binding, Adrenergic α2A ([3]; compound at 0.1 μM, [3H]MK-912, repeat assays, each datapoint shown): 4%
Cc1ccc2c(c1)c1c(n2CC(CC(=O)C(C)(C)C)c2ccncc2)CCN(C)C1 (stereo not drawn) [II-222, 6-(2,8-dimethyl-1,2,3,4-tetrahydro-pyrido[4,3-b]indol-5-yl)-2,2-dimethyl-5-pyridin-4-yl-hexan-3-one]	19%	99%				inhibition at 0.1 µM [3, 7]: 26%
Cc1cnc2c(c1)c1c(n2CC(N)c2ccncc2)CCN(C)C1 (stereo not drawn) [compound 156]	21%	6%				inhibition at 0.1 µM [3, 7]: 1%
Cc1ccc2c(c1)c1c(n2CC(N=[N+]=[N-])c2ccc(F)cc2F)CCN(C)CC1 (single isomer, unassigned) [V-21a, 6-(2-azido-2-(2,4-difluorophenyl)ethyl)-3,9-dimethyl-1,2,3,4,5,6-hexahydroazepino[4,5-b]indole]		98%		68%		inhibition at 0.1 µM [3, 7]: 62%
Cc1ccc2c(c1)c1c(n2CC(N)c2ccncc2)CC2CCC1N2C (single isomer, unassigned) [155b]			5%	1%	5%	
CNC(Cn1c2c(c3cc(C)ccc31)CN(C)CC2)c1ccc(F)cc1 (single isomer, unassigned) [II-12a, 2-(2,8-dimethyl-3,4-dihydro-1H-pyrido[4,3-b]indol-5(2H)-yl)-1-(4-fluorophenyl)-N-methyl ethanamine]						Percentage inhibition of ligand binding, Adrenergic α1B ([1]; 0.1 μM compound): 26%; Percentage inhibition of ligand binding, Adrenergic α2B ([2]; 0.03 μM compound): 89%; Percentage inhibition of ligand binding, Adrenergic α2A ([3]; 0.1 μM compound): 25%
Cc1ccc2c(c1)c1c(n2CC(OC(=O)C(C)(C)C)c2ccncc2)CCN(C)C1 (single isomer, unassigned) [130b]			31%	8% and 11%		Percentage inhibition of ligand binding, Adrenergic α1B (0.03 μM) ([1]; compound at 0.03 μM, [3H]Prazosin, repeat datapoints each shown, 0.03 µM): 2%; pKi [2]: 8.60; pKi [3]: 7.14; Percentage inhibition of ligand binding, Adrenergic α2A (0.03 μM) ([3]; compound at 0.03 μM, [3H]MK-912, repeat datapoints each shown, 0.03 µM): 13%
Cc1ccc2c(c1)c1c(n2CC(C)(O)c2cccnc2)C(O)CN(C)C1 (single isomer, unassigned) [II-151a]	11%		1%		27%	
Cc1cnc2c(c1)c1c(n2CC(C)(O)c2ccc(F)cc2)CCN2CCCC12 (single isomer, unassigned) [II-149d, 2-(4-fluoro-phenyl)-1-(9-methyl-1,2,3,4,5,10c-hexahydro-3a,6,7-triazacyclopenta[c]fluoren-6-yl)-propan-2-ol]			7%	41%	44%	
Cc1ccc2c(c1)c1c(n2CC(OC(=O)CCC(=O)O)c2ccncc2)CCN2CCCC12 (single isomer, unassigned) [V-18a, 4-(2-(10-methyl-2,3,5,6-tetrahydro-1H-indolizino[7,8-b]indol-7(11cH)-yl)-1-(pyridin-4-yl)ethoxy)-4-oxobutanoic acid]	78%		13%		57%	
Cc1cnc2c(c1)c1c(n2CCc2cccnc2)CCN2CCCC12 (single isomer, unassigned) [134b, 9-methyl-6-(2-pyridin-3-yl-ethyl)-2,3,4,5,6,10c-hexahydro-1H-3a,6,7-triaza-cyclopenta[c]fluorene]	93%	102%	29%	95%	103%	inhibition at 0.03 µM ([1]; read-out: Percentage inhibition of ligand binding, Adrenergic α1B (0.03 μM), compound at 0.03 μM, [3H]Prazosin, repeat datapoints each shown): 78%; pKi [2]: 9.37; pKi [3]: 6.99; inhibition at 0.1 µM [3, 7]: 23%
Cc1ccc2c(c1)c1c(n2CC(C)(O)c2cccnc2)CCN(C)C1C (single isomer, unassigned) [II-152c]			1%	6%	14%	

Source: patent publication US8791132B2, “Compounds and methods for treatment of hypertension” (Medivation Technologies, Inc., priority 2011, dated 2014)
